One assay deals with A549. In words: In vitro inhibition test for cancer cell proliferation (MTT), A549. The format is cell-based. The following applies: 24 h or 48 h after addition, unit inferred.
A further assay deals with HeLa. In words: In vitro inhibition test for cancer cell proliferation (MTT), HeLa. The format is cell-based. The following applies: 24 h or 48 h after addition, unit inferred.
In a further assay the test system is MCF-7. Briefly: In vitro inhibition test for cancer cell proliferation (MTT), MCF-7. The conditions noted are these: 24 h or 48 h after addition, unit inferred. The format is cell-based.
The test system of another assay is L929. In words: In vitro cell proliferation inhibition test (MTT), L929. The following applies: 24 h or 48 h after addition, unit inferred. The format is cell-based.
For assay [1], the system named is non-small cell lung cancer cell H460. In words: In vitro proliferation inhibition, H460. The following applies: unit inferred. The format is cell-based. The protocol:
(§1) Test method: pancreatic cancer cells CFPAC-1 were cultured in a Dalbeco-improved Eagle medium with the addition of 10% FBS and 5% double-antibody. CFPAC-1 cancer cells were inoculated into a 96-well plate for incubation for 24 h; in the following day, test compounds having various concentrations of (100, 20, 10, 1, 0.1, 0.01, and 0.001 μM) and positive control agents were added per well; corresponding volume of fresh medium was added to blank control. After addition for 24 h or 48 h, cell proliferation was evaluated by chromogenic reaction of MTT formazan.
(§2) In addition, compounds (I), (II), (III), and (IV) of the present invention have good inhibition activity against the proliferation of other cancer cells, including non-small cell lung cancer cell (H460, H1299), liver tumor cell (HepG2), rectal cancer cell (HT29), leukemia cell (CCRF-CEM), prostate cancer cell (PC-3), ovarian carcinoma cell (SKOV-3), melanoma cell (A375), myeloma cell (RPMI-8226), esophageal carcinoma cell (TE-1), pancreatic cancer cell (CFPAC-1, PANC-1, SW1990, ASPC-1, and BXPC-3), bladder cancer cell (5637), and gastric cancer cell (KATO-III).

The subject of assay [2] is non-small cell lung cancer cell H1299. Briefly: In vitro proliferation inhibition, H1299. The following applies: unit inferred. The assay is classed as cell-based. The protocol: as §1, §2
A further assay relates to liver tumor cell HepG2. In words: In vitro proliferation inhibition, HepG2. The format is cell-based. The conditions noted are these: unit inferred. The protocol: as §1, §2
A further assay deals with rectal cancer cell HT29. In words: In vitro proliferation inhibition, HT29. The format is cell-based. The following applies: unit inferred. How it is done:
as §1, §2

The subject of the next assay is leukemia cell CCRF-CEM. In words: In vitro proliferation inhibition, CCRF-CEM. The assay is classed as cell-based. The following applies: unit inferred. The protocol:
as §1, §2

The subject of assay [3] is prostate cancer cell PC-3. Briefly: In vitro proliferation inhibition, PC-3. The assay is classed as cell-based. The conditions noted are these: unit inferred. The protocol:
as §1, §2

Assay [4] has as its system ovarian carcinoma cell SKOV-3. In words: In vitro proliferation inhibition, SKOV-3. The format is cell-based. The following applies: unit inferred. How it is done:
as §1, §2

The subject of another assay is melanoma cell A375. In words: In vitro proliferation inhibition, A375. The format is cell-based. The conditions noted are these: unit inferred. The protocol: as §1, §2
The next assay relates to myeloma cell RPMI-8226. In words: In vitro proliferation inhibition, RPMI-8226. The format is cell-based. The conditions noted are these: unit inferred. The protocol:
as §1, §2

The test system of assay [5] is esophageal carcinoma cell TE-1. Briefly: In vitro proliferation inhibition, TE-1. The following applies: unit inferred. The assay is classed as cell-based. How it is done:
as §1, §2

In assay [6] the test system is pancreatic cancer cells CFPAC-1. Briefly: In vitro proliferation inhibition, CFPAC-1. The assay is classed as cell-based. The conditions noted are these: unit inferred. How it is done:
as §1, §2

For assay [7], the system named is pancreatic cancer cell PANC-1. Briefly: In vitro proliferation inhibition, PANC-1. The assay is classed as cell-based. The conditions noted are these: unit inferred. The protocol:
as §1, §2

Assay [8] has as its system pancreatic cancer cell SW1990. In words: In vitro proliferation inhibition, SW1990. The conditions noted are these: unit inferred. The assay is classed as cell-based. The protocol:
as §1, §2

In assay [9] the test system is pancreatic cancer cell ASPC-1. Briefly: In vitro proliferation inhibition, ASPC-1. The format is cell-based. The following applies: unit inferred. The protocol: as §1, §2
The subject of assay [10] is pancreatic cancer cell BXPC-3. Briefly: In vitro proliferation inhibition, BXPC-3. The assay is classed as cell-based. The following applies: unit inferred. The protocol: as §1, §2
The test system of the next assay is bladder cancer cell 5637. Briefly: In vitro proliferation inhibition, 5637. The following applies: unit inferred. The format is cell-based. The protocol: as §1, §2
For assay [11], the system named is gastric cancer cell KATO-III. Briefly: In vitro proliferation inhibition, KATO-III. The conditions noted are these: unit inferred. The format is cell-based. How it is done:
as §1, §2

Assay [12] concerns CFPAC-1 pancreatic cancer cells. In words: In vivo inhibition test of cancer cell proliferation, CFPAC-1 transplant. Details: species or system Balb/c naked mouse. The following applies: 7 mg/kg, once every other three days, 7 times; gross tumor volume. The protocol: Test method: 3×10^7 CFPAC-1 pancreatic cancer cells were transplanted to subcutaneous tissues of armpit of a Balb/c naked mouse; administration was conducted when the tumor grew to 50-100 mm^3, 100-200 mm^3, and greater than 200 mm^3; the mouse was administered once every other three days, 7 times in total, and 7 mg/kg each time. Normal saline was injected in the control group. Tumor length and diameter were measured by calipers and weight of the moue was weighed until the next day of the final administration. Gross tumor volume was calculated by the following equation:
gross tumor volume (mm^3)=½×[short diameter (mm)]^2×long diameter (mm)

On to `CON=C1c2ccccc2C(=O)c2c1[n+](C)cn2C.[I-]` [Compound 123, (E) and (Z)-4-(methoxylimino)-1,3-dimethyl-9-oxo-4,9-dihydro-1H-naphthol[2,3-d]imidazole-3-iodide], for which the half-maximal inhibitory concentration (IC50) is 7 nM with A549; 23000 nM in the assay on HeLa; 1800 nM in the assay with MCF-7; 3800 nM in the assay on L929; 220 nM in assay [1]; 430 nM in assay [2]. Further, the half-maximal inhibitory concentration (IC50) came to 10 nM with liver tumor cell HepG2; 6700 nM with rectal cancer cell HT29; 120 nM in the assay with leukemia cell CCRF-CEM; 13500 nM in assay [3]; 90 nM in [4]; 4650 nM in the assay on melanoma cell A375. The IC50 with myeloma cell RPMI-8226 amounted to 90900 nM; in assay [5] it was 70 nM; in assay [6], 7 nM; in [7], 760 nM; in assay [8] it was 8 nM; in assay [9] it was 7 nM. For the same compound, the 50% inhibitory concentration (IC50) in assay [10] was 4 nM; in the assay with bladder cancer cell 5637, 50 nM; in [11], 10 nM. Also, in assay [12], the “proliferation inhibition activity / inhibition ratio” value is 100%.

As to “(E) and (Z)-4-(butoxyimino)-1,3-dimethyl-9-oxo-4,9-dihydro-1H-naphthol[2,3-d] [Compound 128]”, the concentration for half-maximal inhibition (IC50) with A549 turned out to be 4 nM; with HeLa it was 4800 nM; with MCF-7, 2900 nM; in the assay with L929, 6500 nM; in assay [1] it was 140 nM; in assay [2] it was 170 nM. Also, the IC50 in the assay on liver tumor cell HepG2 is 20 nM; in the assay on rectal cancer cell HT29, 9800 nM; in the assay on leukemia cell CCRF-CEM, 530 nM; in [3] it was 8800 nM; in assay [4], 80 nM; in the assay with melanoma cell A375, 1660 nM. The IC50 in the assay on myeloma cell RPMI-8226 is 78900 nM; in assay [5], 9 nM; in assay [6] it was 8 nM; in [7] it was 100 nM; in assay [8], 9 nM; in [9], 8 nM. Besides, the IC50 in [10] was 6 nM; in the assay on bladder cancer cell 5637, 10 nM; in assay [11] it was 9 nM. Moreover, the “proliferation inhibition activity / inhibition ratio” value in assay [12] turned out to be 100%.

Take `CCON=C1c2ccccc2C(=O)c2c1[n+](C)cn2C.[I-]` [Compound 124, (E) and (Z)-4-(ethoxylimino)-1,3-dimethyl-9-oxo-4,9-dihydro-1H-naphthol[2,3-d]imidazole-3-iodide]: the 50% inhibitory concentration (IC50) is 9 nM in the assay with A549; 11300 nM in the assay on HeLa; 3300 nM with MCF-7; 4600 nM in the assay on L929; 340 nM in [1]; 450 nM in assay [2]. The half-maximal inhibitory concentration (IC50) is 20 nM in the assay on liver tumor cell HepG2; 7900 nM in the assay on rectal cancer cell HT29; 220 nM with leukemia cell CCRF-CEM; 23100 nM in assay [3]; 100 nM in assay [4]; 5650 nM in the assay with melanoma cell A375. Further, the IC50 in the assay on myeloma cell RPMI-8226 stood at 99200 nM; in assay [5], 80 nM; in assay [6], 9 nM; in assay [7], 890 nM; in assay [8], 9 nM; in assay [9], 8 nM. Moreover, the figures for the IC50 (in assay [10]; in the assay on bladder cancer cell 5637; in assay [11]) were 6 nM, 60 nM and 20 nM, respectively. Moreover, the “proliferation inhibition activity / inhibition ratio” value in assay [12] is recorded as 100%.

In general, IC50 refers to the midpoint of a concentration-inhibition curve. A lower IC50 goes with greater potency.

The record behind these values is patent publication US20250163002A1, “FUSED QUINONOXIME IMIDAZOLE, ONIUM DERIVATIVES THEREOF, PREPARATION AND USE THEREOF” (SHANGHAI JIAO TONG UNIVERSITY, priority 2022, published 2025).
